Reference: US8399466B2, “Composition for regenerative treatment of cartilage disease” (Mitsubishi Tanabe Pharma Corporation, priority 2001, dated 2013)

How the values were obtained:
articular chondrocytes = assay: Increase of matrix production of articular chondrocytes (Alcian blue staining of proteoglycan); format: cell-based, rabbit; conditions: for Proteoglycan Production (%): cultivation until day 5, vehicle = 100; for matrix production promoting activity: summary of Table 1
Experimental: Four NZW line rabbits (Kitayama Labes., Co Ltd.; male; 4-week-old) were sacrificed with bleeding under ether anesthesia and femur knee joints were collected aseptically. The collected knee joints were stored in phosphate buffer (pH 7.2) containing 0.2% glucose and only the cortical layer of knee joint was scrapped with a surgical knife into a 50 ml tube containing phosphate buffer (pH 7.2) containing 0.2% glucose. The collected knee joint cortical layer was cut into as small sections as possible on a dish with a razor and shaken at 37° C. for 15 minutes in phosphate buffer containing 0.2% glucose, supplied with 10× trypsin-ethylenediamine tetraacetic acid (EDTA)·4 Na salt (GIBCO; Cat. No. 15400-054) (50 ml, with 100 mg of trypsin and 40 mg of EDTA·4Na; pH 7.2). After shaking, the sample was centrifuged (1,400 rpm) to collect precipitates, and the precipitates were washed twice with 40 ml of phosphate buffer containing 0.2% glucose. The washed precipitates were combined with 40 ml of serum-free α-minimum essential medium (MEM: GIBCO; Cat: No. 12571-063) containing 60 mg of collagenase for cell diffusion (Wako Pure Chemical Industries, Ltd., 034-10533) and transferred to a 100 ml beaker containing a sterilized stirrer bar. Under stirring with the stirrer bar, the collagenase digestion was carried on for about 1 hour in a CO2 incubator at 37° C. Cartilage fragments were removed from the collagenase-treated cells using a […] Cell Strainer ([FALCON; Cat. No. 2340]). To the residual treated cells was added 10 ml of α-MEM medium containing 10% fetal calf serum (FCS), and centrifuged (1,400 rpm). The precipitates were washed with 10% FCS-αMEM medium twice, suspended in appropriate volume of the same medium and the resultant suspension was seeded into collagen type II (Wako Pure Chemical Industries, Ltd., 033-13901)-coated plates (48 well) at 20,000 cells/well. On the next day, the medium was replaced with 10% FCS-αMEM medium.
When cells reached to confluent after the medium exchange procedure above, the medium for test group was replaced with test compound-containing medium (including 0.1% dimethylsulfoxide as a vehicle). As a medium to which a test compound is added, 10% FCS-αMEM medium containing 0.2 mM ascorbic acid was used. The day on which test compound-containing medium was added for the first time was defined as “day 1”. The medium exchange with the same medium was again conducted at day 3 and the cultivation continued until day 5. As to the control group, the medium was exchanged at the same time using the same medium as the test group except that it is free of test compound (containing vehicle only), and the cultivation was carried out in the same manner. After completion of cultivation, the supernatant was removed from the culture medium. Cells were fixed by addition of 0.25 ml of neutral buffer containing 4% paraformaldehyde and incubation for 2 hours. Cells were washed three times with 1 ml of phosphate buffer (pH 7.2) and then stained for 4 hours with 0.1% Alcian blue 8GX (Sigma; A3157) dissolved in 0.1 M hydrochloric acid, which Alcian blue selectively stains cartilage matrix proteoglycan. After staining, the cells were washed 3 times with 1 ml of phosphate buffer (pH 7.2). Alcian blue which had stained cartilage matrix was dissolved with 0.25 ml of aqueous 6 M guanidine hydrochloride solution and a portion of the solution was used to determine the absorbance at 620 nm. The amounts of Alcian blue used for staining was calculated from the absorbance, which in turn was used for the estimation of the amount of matrix (proteoglycan).

[1] = test system: human articular chondrocytes; assay: Increase of intracellular cAMP in human articular chondrocytes (cAMP EIA); format: cell-based; conditions: PGE2 1 μM, 30 minutes, vehicle 0.4
Experimental: Human articular cartilage (articular cartilage of degenerative malum coxae patient) was soaked in phosphate buffer (pH 7.2) and only the cortical layer of the joint portion was scrapped with, a knife into a 50 ml tube containing same buffer. The collected knee joint cortical layer was cut into as small sections as possible on a dish with a razor and transferred to a centrifuge tube.
To the centrifuge tube, phosphate buffer (pH 7.2) containing 1 mg/ml of hyaluronidase (SIGMA: Cat. No. H-3506) was added and shaken at 37° C. for 15 minutes. The precipitates were separated by centrifugation (2,000 rpm, 5 minutes) and added to Hank's balanced salt solution (GIBCO; Cat. No. 15050-065) containing 0.25% trypsin and shaken at 37° C. for 30 minutes.
After separation of precipitates by centrifugation (2,000 rpm, 5 minutes), α-minimum essential medium (GIBCO; Cat. No. 12571-063) containing 0.25% collagenase for cell diffusion (Wako Pure Chemical Industries, Ltd., 034-10533) and 10% fetal calf serum (GIBCO; Cat. No. 10099-141) were added to the precipitates and shaken at 37° C. overnight.
Cartilage fragments were removed using a 40 μm Cell Strainer (FALCON; Cat. No. 2340), and α-minimum essential medium containing 10% fetal calf serum was added to the collagenase-treated cells and centrifuged (1,400 rpm, 10 minutes).
The precipitates were washed three times with α-minimum essential medium containing 10% fetal calf serum and suspended in the same medium to an appropriate volume and seeded into 48-well plates (50,000 cells/well). On the next day, the medium was replaced with α-minimum essential medium containing 10% fetal calf serum. The α-minimum essential medium used contained antibiotics (100 U/ml penicillin G and 100 μg/ml streptomycin sulfate) and an antifungal (0.25 μg/ml amphotericin B) (GIBCO; Cat. No. 15240-062). […]
After 30 minutes cultivation, medium was discarded. […] The residue was dissolved in an assay buffer attached with cAMP EIA system (Amersham Pharmacia Biotech; Cat. No. RPN225) and cAMP concentration was measured with said system.

SMILES	Proteoglycan Production (%) (articular chondrocytes; 1 × 10^−5 M)	Proteoglycan Production (%) (articular chondrocytes; 1 × 10^−6 M)	matrix production promoting activity (articular chondrocytes)	cAMP Production (picomol/well) ([1]; 1 × 10^−5)	cAMP Production (picomol/well) ([1]; 1 × 10^−6)
CCOc1cc2cc(CO)c(CO)c(-c3ccnc(-n4nc(-c5cccnc5)c5ccccc5c4=O)c3)c2cc1OCC [Compound (2)]	128	125	exert matrix production promoting activity	23.2	13.8
COc1ccc(C(=O)Nc2c(Cl)cncc2Cl)cc1OC1CCCC1 [Compound (11)]		112	exert matrix production promoting activity	10.6	
